Test results reported in patent publication US20160015803A1, “IMMUNOSTIMULATORY COMBINATIONS AND USE THEREOF” (priority 2014, published 2016).

Tested on: markers of innate activation
Experiment: in vivo activity, markers of innate activation after IV injection
Conditions: Rhesus; 24-72 hours after IV injection
From the text: Based on these findings in mice we explored the potential for the use of polyIC-LC/αCD40 combination vaccination in non-human primates (NHP) in order to validate the clinical efficacy. Human anti-human CD40 (Kirin Pharmaceuticals) having the variable heavy and light sequences in the Sequence Listing were produced in cell culture. CD40 binding activity and agonistic activity was confirmed against both human and Rhesus Macaque PBMCs. In vivo activity in Rhesus was also confirmed by examining markers of innate activation 24-72 hours after IV antibody injection. PolyIC-LC was obtained from Oncovir Inc. and its activity was confirmed in vivo similar to the αCD40.

PolyIC-LC
In vivo activity (markers of innate activation): confirmed
